Minimal effective dose data for one compound are collected here from patent EP0178946A2, “1-(Aminoalkyl)-alpha, alpha-diaryl pyrrolidine-piperidine- and homopiperidine- acetamides and acetonitriles” (A.H. ROBINS COMPANY, INCORPORATED, priority 1984, dated 1986).

The structures appear in SMILES notation.

This test has as its system Cardiac Arrhythmia in Dogs. Put plainly: Ouabain induced arrhythmias: correction of existing ventricular arrhythmia by i.v. infusion. It is filed as in vivo, adult mongrel dogs. As to conditions: Canis lupus familiaris, iv, 0.5 h; Ouabain-Induced arrhythmia model; dogs under barbiturate anaesthesia; infusion into a femoral vein at 1 mg/kg/min; active if reversion to sinus rhythm maintained for at least 30 minutes; tested as difumarate hemihydrate salt, dose computed as free base; read-out: Correcting Dose mg/kg, i.v. (computed as free base). As for the experimental part:
Correction of existing cardiac arrhythmias of ventricular origin is carried out on (1) adult mongrel dogs which are under barbiturate anaesthesia during the test. A Grass Model 7 Polygraph was used for recording femoral arterial blood pressure (Statham P23AC Transducer) and the electro- cardiagram (Grass 7P4 Preamplifier). Ouabain was given intravenously in an initial dose of 40 µg/kg and in a second dose of 20 µg/kg 30 minutes after the first dose and in subsequent doses of 10 µg/kg which were repeated at 15 min. intervals as required for producing cardiac arrhythmias that persisted for at least 15 minutes. When the arrhythmias were established, the test compounds were administered by infusion (Harvard Model 942 Infusion Pump) into a femoral vein at a rate of 1 mg/kg/min. Concentration of compound was adjusted according to the weight of the dog to allow a volume infusion of 1 ml/min. The compound was considered to be active as antiarrhythmic agent if reversion to sinus rhythm occurred which was maintained for at least 30 minutes.
Data obtained for one preferred compound, namely 1-[2-(dimethylamino)ethyl]α,α-diphenyl-3-pyrrolidine- acetamide as represented by its defumarate hemihydrate salt are shown in Table 1.

Regarding `CN(C)CCN1CCC(C(C(N)=O)(c2ccccc2)c2ccccc2)C1` (stereo not drawn) [Example 5, 1-2-(Dimethylamino)ethyl]-α,α-diphenyl-3-pyrrolidine-acetamide difumarate, hemihydrate], the minimal effective dose worked out at 5 mg/kg.
